Experimental data taken from patent US20030130249A1, “Therapeutic use of estrogen receptor (ER)beta-selective agonists for triggering somatotropic, organotropic and anticatabolic effects (somatotropic therapy)” (Schering AG, priority 2001, published 2003).

Columns and labels:
Assay type in all cases: in vivo, rat
[1] = test system: gonads of male and female, sexually immature rats; assay: Effects on gonads and prostate of sexually immature rats (FIG. 3)
Procedure: ERβ-selective properties can be studied in the case of female and male rats that are not sexually mature. […] In the case of a parenteral dose of 1 μg/animal/day, estradiol results in a complete inhibition of testicular growth. […] The action on the somatotropic functions, gonad functions and the genital tract was studied in infant, gonad-intact, male and female rats. Effects of ERβ-agon or ERβ-selective agonists (agon) (E2) on gonads of male and female, sexually immature rats in comparison to estradiol. Treatment of the young animals after weaning over 7 days (day 1-day 7, autopsy day 8, subcutaneous injection).

[2] = test system: uterus of adult rats that have undergone ovariectomies; assay: Uterotropic action in adult ovariectomized rats (FIG. 1); settings: for dose giving increase in uterus weight ("standard" estrogenic activity): treatment day 1-day 3, autopsy day 4
Procedure: The substances that are to be used according to the invention have very little action in terms of “standard estrogens.” Corresponding estrogenic properties can be examined in the rats that have undergone ovariectomy. In the case of parenteral administration, 17β-estradiol even at a dose of 0.1 μg results in an increase in uterus weight. […] These substances have a correspondingly small action on the parameters of hepatic estrogeneity, for example the increase of the angiotensinogen in the blood. To examine the action of the ERβ-selective agonists in the context according to the invention, their estrogenic action on the genital tract, liver functions, somatotropic factors and on the secretion of gonadotropins was examined in comparison to estradiol in adult rats that have undergone ovariectomies. Determination of the uterotropic action of an ERα- or ERβ-selective agonist (agon) in comparison to estradnol (E2) Study of adult rats that have undergone ovariectomies 14 days after the ovariectomies, treatment day 1-day 3, autopsy day 4, subcutaneous administration in 0.2 ml of vehicle.

[3] = test system: body growth of sexually immature rats whose ovaries are intact; assay: Body growth of sexually immature rats (FIG. 7); settings: immature rats with intact ovaries, 7 days subcutaneous
Source text: (§1) Effects of ERα- or ERβ-selective agonists (agon) on the body growth of sexually immature rats whose ovaries are intact in comparison to estradiol (E2). Treatment of the young animals after weaning over 7 days (day 1-day 7, autopsy day 8, subcutaneous injection) in two tests with different dose ranges.

[4] = test system: adrenal glands and thymus of sexually immature rats with intact ovaries; assay: Organ weights of adrenal glands and thymus of sexually immature rats (FIG. 6); settings: 7 days subcutaneous
Source text: Effects of ERα- or ERβ-selective agonists (agon) on the development of the organ weights of the adrenal glands and the thymus of sexually immature rats with intact ovaries in comparison to estradiol (E2). Treatment of young animals after weaning over 7 days (day 1-day, 7, autopsy day 8, subcutaneous injection).

[5] = test system: cholesterol fractions in the plasma from sexually immature rats with intact ovaries; assay: Cholesterol fractions in the plasma of sexually immature rats (FIG. 5); settings: 7 days subcutaneous
Source text: as §1, with “cholesterol fractions in the plasma from” for “body growth of”, “with intact” for “whose”, “ovaries” for “ovaries are intact”

[6] = test system: IGF-I in the plasma from sexually immature rats with intact ovaries; assay: IGF-I in the plasma of sexually immature rats (FIG. 4); settings: 7 days subcutaneous, two tests with different dose ranges
Source text: Effects of ERα- or ERβ-selective agonists (agon) on IGF-I in the plasma from sexually immature rats with intact ovaries in comparison to estradiol (E2). Treatment of the young animals after weaning over 7 days (day 1-day 7, autopsy day 8; subcutaneous injection) in two tests with different dose ranges.

[7] = Plasma levels after one-time oral or subcutaneous administration to ovariectomized rats, RIA (FIG. 8); settings: one-time oral 1.0 mg or subcutaneous graduated dosages
Procedure: Plasma levels of the ERβ-selective agonist after a one-time oral or parenteral (subcutaneous injection) administration to ovariectomized rats, determinations 0.5; 1; 3; 6; 24 hours after oral administration of 1.0 mg (left) or 1; 2; 4; 6; 24 hours after subcutaneous administration of graduated dosages. Immunological determination by means of LCMS-validated Radio Immuno Assay (RIA).

[8] = test system: uterus and vagina of ovary-intact, sexually immature rats; assay: Effects on uterus and vagina in ovary-intact, sexually immature rats (FIG. 2); settings: 7 days subcutaneous
Source text: The action on the somatotropic functions, gonad functions and the genital tract was studied in infant, gonad-intact, male and female rats. Effects of ERβ-agon or ERβ-selective agonists (agon) (E2) on the uterus and vagina in ovary-intact, sexually immature rats in comparison to estradiol. Treatment of the young animals after weaning over 7 days (day 1-day 7, autopsy day 8, subcutaneous injection) in two tests with different dose ranges.

SMILES | dose giving complete inhibition of testicular growth ([1]; parenteral) | dose giving increase in uterus weight ("standard" estrogenic activity) ([2]; subcutaneous) | body growth (weight increase) at higher dosages ([3]; higher dosages) | adrenal gland weight [4] | thymus weight [4] | thymus weight at higher dosages ([4]; higher dosages) | induction of uterus growth ([2]; subcutaneous, compared with ERβ-agon) | HDL-cholesterol fraction in the plasma at high doses ([5]; high doses) | total cholesterol in the plasma at high doses ([5]; high doses) | IGF-I in the plasma [6] | body growth ([3]; two tests with different dose ranges) | growth of the prostate ([1]; 7 days subcutaneous) | testicular growth ([1]; 7 days subcutaneous, autopsy day 8) | testicular growth at high doses ([1]; high doses, 7 days subcutaneous) | dose relative to estradiol for comparable uterotropic effect ([2]; parenteral, versus 0.1 μg of E2) | HDL-cholesterol fraction in the plasma ([5]; broad dose range) | total cholesterol in the plasma ([5]; broad dose range) | oral bioavailability (plasma levels) [7] | weight development of the uterus and vagina ([8]; autopsy day 8) | effects on uterus and vagina weight compared with ERα-agon and E2 ([8]; lowest tested dose)
C[C@]12CC[C@@H]3c4ccc(O)cc4CC[C@H]3[C@@H]1CC[C@@H]2O [E2, estradiol, reference compound] | 1 μg/animal/day | 0.1 µg | – | – | – | – | – | – | – | – | – | – | – | – | – | – | – | – | – | –
C[C@]12CC[C@@H]3c4ccc(O)cc4CC[C@H]3[C@@H]1C[C@H]1OC(=O)C[C@]12O [ERα-agon, 3,17β-dihydroxy-19-nor-17α-pregna-1,3,5(10)-triene-21,16α-lactone, reference compound] | – | – | considerable reduction of the weight increase | less pronounced positive effects | less pronounced positive effects | reduction of the thymus weight | induce uterus growth in the case of much lower dosage than the ERβ-agon | drop the HDL-cholesterol fraction | drop the HDL-cholesterol fraction and the total cholesterol | No comparable effects | – | – | – | – | – | – | – | – | – | –
C=C[C@@]12CCc3cc(O)ccc3[C@H]1CC[C@@]1(C)[C@H]2CC[C@@H]1O [ERβ-agon, 8β-vinyl-1,3,5(10)-estratriene-3,17β-diol] | – | 100 µg | – | increase of adrenal gland weight | increase of adrenal gland weight and thymus weight | – | – | – | – | Statistically significant increase of the IGF-I | accelerated growth of the animals via a broad dose range | acceleration of the growth of the prostate | stimulates testicular growth beyond the normal size, which is statistically significant | inhibition of the testicular growth | 1000 fold | increase of the HDL-cholesterol fraction | elevated plasma levels of the total cholesterol | orally readily bioavailable | considerable effects on the weight development of the uterus and vagina in extremely low dosages | exceed those of ERα-agon, and E2 is statistically significant
